Test results published in patent publication US20060216774A1 (priority 2003, published 2006).

Key:
icl1 (isocitrate lyase) = icl1 (isocitrate lyase) (Mycobacterium tuberculosis, UniProt P9WKK7); conditions: read-out: Km for icl1; substrate isocitrate; cited from earlier work
icl2 (isocitrate lyase) = icl2 (isocitrate lyase) (Mycobacterium tuberculosis, UniProt Q8VJU4); conditions: read-out: Km for icl2; substrate isocitrate; cited from earlier work
isocitrate lyase (icl) = isocitrate lyase (icl) (Escherichia coli, UniProt P0A9G6); conditions: read-out: Km of icl; E. coli, substrate isocitrate; cited from earlier work
Sequence of isocitrate lyase (icl) (P0A9G6 whole entry): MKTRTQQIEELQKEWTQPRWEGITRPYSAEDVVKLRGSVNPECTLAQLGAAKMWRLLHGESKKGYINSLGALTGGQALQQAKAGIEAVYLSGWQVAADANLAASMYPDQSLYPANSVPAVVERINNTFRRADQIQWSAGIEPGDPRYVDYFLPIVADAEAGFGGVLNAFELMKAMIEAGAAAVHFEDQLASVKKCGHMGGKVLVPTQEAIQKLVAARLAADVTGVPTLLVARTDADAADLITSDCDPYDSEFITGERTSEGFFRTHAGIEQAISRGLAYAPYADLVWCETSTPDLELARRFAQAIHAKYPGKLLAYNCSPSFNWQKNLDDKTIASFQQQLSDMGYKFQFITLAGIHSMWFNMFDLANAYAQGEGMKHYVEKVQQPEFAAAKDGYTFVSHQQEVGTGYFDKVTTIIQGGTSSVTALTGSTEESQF

[1] = tested on: O=C(O)CC(C(=O)O)C(O)C(=O)O; assay: purified protein, by the assay type; conditions: other: Lineweaver-Burke plot and Cornish-Bowden direct linear plot

Sequence of icl2 (isocitrate lyase) (Q8VJU4 whole entry): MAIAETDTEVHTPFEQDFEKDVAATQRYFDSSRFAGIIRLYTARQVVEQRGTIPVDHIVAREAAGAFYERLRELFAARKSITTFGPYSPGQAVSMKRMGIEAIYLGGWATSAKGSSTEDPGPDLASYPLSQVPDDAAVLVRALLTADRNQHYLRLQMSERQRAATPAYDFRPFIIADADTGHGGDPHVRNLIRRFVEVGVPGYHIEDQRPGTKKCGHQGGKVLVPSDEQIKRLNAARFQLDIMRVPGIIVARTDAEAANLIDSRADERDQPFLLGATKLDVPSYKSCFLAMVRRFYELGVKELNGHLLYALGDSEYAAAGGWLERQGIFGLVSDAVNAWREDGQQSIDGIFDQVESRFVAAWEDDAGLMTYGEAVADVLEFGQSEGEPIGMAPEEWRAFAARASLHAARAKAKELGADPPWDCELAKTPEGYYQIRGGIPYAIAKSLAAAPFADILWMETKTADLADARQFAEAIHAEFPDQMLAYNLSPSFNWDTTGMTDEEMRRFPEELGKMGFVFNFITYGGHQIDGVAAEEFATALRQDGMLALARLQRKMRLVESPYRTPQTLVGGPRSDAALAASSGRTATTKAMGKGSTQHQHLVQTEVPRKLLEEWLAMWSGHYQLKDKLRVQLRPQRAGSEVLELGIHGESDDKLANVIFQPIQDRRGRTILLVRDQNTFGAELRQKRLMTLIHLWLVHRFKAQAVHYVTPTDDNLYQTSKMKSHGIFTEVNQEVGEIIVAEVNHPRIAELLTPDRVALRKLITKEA
Sequence of icl1 (isocitrate lyase) (P9WKK7 whole entry): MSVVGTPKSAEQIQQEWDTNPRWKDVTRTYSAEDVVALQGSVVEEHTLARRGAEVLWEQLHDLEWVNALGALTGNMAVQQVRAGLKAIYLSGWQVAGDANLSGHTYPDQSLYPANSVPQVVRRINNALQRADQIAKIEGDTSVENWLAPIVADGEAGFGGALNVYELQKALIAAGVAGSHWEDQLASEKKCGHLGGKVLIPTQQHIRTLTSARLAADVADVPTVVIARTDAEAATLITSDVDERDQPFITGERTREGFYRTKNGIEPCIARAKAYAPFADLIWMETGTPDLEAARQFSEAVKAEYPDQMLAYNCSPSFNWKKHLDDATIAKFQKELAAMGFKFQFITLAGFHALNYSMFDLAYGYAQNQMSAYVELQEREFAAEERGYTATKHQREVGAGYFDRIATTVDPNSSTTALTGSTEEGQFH

## O=C(O)CC(C(=O)O)C(O)C(=O)O (stereo not shown) [isocitrate]
icl1 (isocitrate lyase)
  Km: ~115 µM
icl2 (isocitrate lyase)
  Km: ~1500 µM
Isocitrate lyase (icl)
  Km: 604 µM

## icd1 (isocitrate dehydrogenase, Rv 3339c) (Mycobacterium tuberculosis H37Rv)
[1]
  Km: 12 µM
